Patent publication US12343400B2, “Brain tumor-targeting peptide and application thereof” (priority 2018, dated 2025)
Each block holds one compound with its values, some of them ahead of it. Where a SMILES comes first, the peptide text is derived from it. Bridges are numbered along the chain shown (N, C = ends). Where no end group is shown, it is not given here. The star is where a group is joined. Paclitaxel(2'-O-succinyl) = CC(=O)O[C@H]1C(=O)[C@@]2(C)[C@H]([C@H](OC(=O)c3ccccc3)[C@]3(O)C[C@H](OC(=O)[C@H](OC(=O)CCC(=O)*)[C@@H](NC(=O)c4ccccc4)c4ccccc4)C(C)=C1C3(C)C)[C@]1(OC(C)=O)CO[C@@H]1C[C@@H]2O

How the values were obtained:
u87 brain glioma = test: Enrichment of fluorescent short peptides in brain and tumor of u87 brain glioma model mice; assay type: in vivo, nude mice
Protocol: u87 brain glioma cells were cultivated. When the cells grew to a sufficient amount, the cells were taken, 8-weeks old nude mice were selected, the brains were located, and 5× 10^5 cells were injected at the location for brain tumorigenesis. U87 tumorigenesis cell line is a cell line with luciferase gene transferred, and the mouse imager can be used to observe the tumorigenesis effect in real time.
After tumorigenesis of the tumor model mice became stable, 100 μl of solution of short peptides labeled with fluorescent molecules was injected into the tail veins. A short peptide Angiopep 2, which was from the Angiochem company and was reported in an article to be able to cross the blood-brain barrier, was selected as a reference control. It is currently reported that this short peptide has excellent applications in crossing the blood-brain barrier and targeting brain tumors. The negative control was fluorescent molecule cy5.5 of the same amount of fluorescence equivalent. After the tail vein injection, the small animal in vivo imaging system IVIS was used to check the brain fluorescence. 100 μl of 5 mg/ml luciferase reaction substrate was injected into the intraperitoneal cavity. After 5 minutes, the small animal imaging system was used to check the brain tumors.
The brains of the mice were taken and the fluorescence of the brains was compared.

U87MG brain glioma = test: Survival time of brain glioma model mice; assay type: in vivo, nude mice; conditions: tail vein, equal dose
Protocol: On the first day, 10^6 U87MG cells were inoculated at the right caudate nucleus of nude mice of 6-8 weeks old. Three days later, a solvent or equal dose of paclitaxel or PBL001 was administered via the tail vein, and the survival time of each group of mice was recorded, as shown in FIG. 13.

U87 brain tumors = conditions: mouse, in vivo
Protocol: Cyanine5.5 NHS ester labeling reagent of the Lumiprobe brand was used to fluorescently label each short peptide, and each short peptide was labeled with one fluorescent molecule. […] The fluorescence intensity per unit area was calculated for the brain tumor site and other brain sites respectively, and the enrichment factor of the corresponding polypeptide at the tumor site can be obtained by dividing the fluorescence intensity per unit area at the brain tumor site by the fluorescence intensity per unit area at other brain sites.

- brain fluorescence intensity relative to fluorescently labeled reference peptide Angiopep2 (u87 brain glioma; brain glioma model mice (FIG. 6)): 1.2 times
- fluorescence accumulation in the brain tumor site (u87 brain glioma; brain glioma model mice (FIG. 7)): obvious fluorescence accumulation
Compound: TFYGGRPKRNNFLRGIRSRGD [Pb001]
- brain enrichment amount compared with fluorescently labeled reference peptide Angiopep2 (u87 brain glioma; brain glioma model mice, tail vein injection, after perfusion (FIG. 5)): better than that of the fluorescently labeled reference peptide Angiopep2

Compound: CC[C@H](C)[C@H](NC(=O)CNC(=O)[C@H](CCCNC(=N)N)NC(=O)[C@H](CC(C)C)NC(=O)[C@H](Cc1ccccc1)NC(=O)[C@H](CC(N)=O)NC(=O)[C@H](CC(N)=O)NC(=O)[C@H](CCCNC(=N)N)NC(=O)[C@H](CCCCNC(=O)CCC(=O)O[C@@H](C(=O)O[C@H]1C[C@@]2(O)[C@@H](OC(=O)c3ccccc3)[C@@H]3[C@]4(OC(C)=O)CO[C@@H]4C[C@H](O)[C@@]3(C)C(=O)[C@H](OC(C)=O)C(=C1C)C2(C)C)[C@@H](NC(=O)c1ccccc1)c1ccccc1)NC(=O)[C@@H]1CCCN1C(=O)[C@H](CCCNC(=N)N)NC(=O)CNC(=O)CNC(=O)[C@H](Cc1ccc(O)cc1)NC(=O)[C@H](Cc1ccccc1)NC(=O)[C@@H](NC(=O)CCC(=O)O[C@@H](C(=O)O[C@H]1C[C@@]2(O)[C@@H](OC(=O)c3ccccc3)[C@@H]3[C@]4(OC(C)=O)CO[C@@H]4C[C@H](O)[C@@]3(C)C(=O)[C@H](OC(C)=O)C(=C1C)C2(C)C)[C@@H](NC(=O)c1ccccc1)c1ccccc1)[C@@H](C)O)C(=O)N[C@@H](CCCNC(=N)N)C(=O)N[C@@H](CO)C(=O)N[C@@H](CCCNC(=N)N)C(=O)NCC(=O)N[C@@H](CC(=O)O)C(=O)O [PBL001] ({Paclitaxel(2'-O-succinyl)}-TFYGGRPK(Paclitaxel(2'-O-succinyl))RNNFLRGIRSRGD-OH)
- toxic and side effects compared with paclitaxel (U87MG brain glioma): lower toxic and side effects

Compound: CC[C@H](C)[C@H](NC(=O)CNC(=O)[C@H](CCCNC(=N)N)NC(=O)[C@H](CC(C)C)NC(=O)[C@H](Cc1ccccc1)NC(=O)[C@H](CC(N)=O)NC(=O)[C@H](CC(N)=O)NC(=O)[C@H](CCCNC(=N)N)NC(=O)[C@H](CCCCN)NC(=O)[C@@H]1CCCN1C(=O)[C@H](CCCNC(=N)N)NC(=O)CNC(=O)CNC(=O)[C@H](Cc1ccc(O)cc1)NC(=O)[C@H](Cc1ccccc1)NC(=O)[C@@H](N)[C@@H](C)O)C(=O)N[C@@H](CCCNC(=N)N)C(=O)N[C@H]1CSSC[C@@H](C(=O)O)NC(=O)[C@H](CC(=O)O)NC(=O)[C@@H]2CCCN2C(=O)CNC(=O)[C@H](CCCCN)NC(=O)[C@H](CC(=O)O)NC(=O)CNC(=O)[C@H](CCCNC(=N)N)NC1=O [SEQ ID NO:8] (H-TFYGGRPKRNNFLRGIRCRGDKGPDC-OH; disulfide 18-26; N-terminus and C-terminus assumed)
- tumor enrichment (enrichment factor tumor site / other brain sites) compared to SEQ ID NO:2 peptide (U87 brain tumors): not as significant as the other three synthesized polypeptides
